# Laboratory results from patent publication US11998600B2, “Enhancing the therapeutic activity of an immune checkpoint inhibitor” (MaineHealth, priority 2015, dated 2024).
# Columns and labels:
# [1] = test system: chick chorioallantoic membrane (CAM); test: Chick CAM inflammation assay, induction by RGD collagen peptides; type: in vivo; conditions: chick CAM, no cortisone acetate; FIG. 5D
# Procedure: The chick chorioallantoic membrane (CAM) assays were carried out with some modifications (19). For all experiments CAMs of 10-day-old chick embryos obtained from Charles River (North Franklin, CT) were separated from the shell membrane. Filter discs either non-treated (inflammation assays) pretreated (angiogenesis assays) with cortisone acetate (3.0 mg/ml) containing RPMI only or FGF-2 (40 ng). CAMs were either non-treated or treated topically with Mab XL313, XL166 or a non-specific control antibody (10 μg/embryo every 24 h for three consecutive treatments). […] At the end of the incubation period the embryos were sacrificed and the CAM tissues were analyzed. Angiogenesis was quantified by counting the number of angiogenic branching blood vessels within the area of the filter disc. The angiogenic index was determined by subtracting the mean number of blood vessel branch points from untreated CAMs from each experimental condition. Eight to twelve embryos were used per condition and experiments were repeated at least three times.
# The effects of the soluble RGD containing collagen peptides on inflammation were examined.
# Src = Src phosphorylation in endothelial cells attached to collagen peptides, Western blot; type: cell-based, human; conditions: HUVEC; FIG. 7D
# Procedure: (§1) Whole cell and CAM tissue lysates were collected in RIPA buffer supplemented with 1× protease inhibitor and 1× phosphatase inhibitor and were run on polyacrylamide gels using denaturing conditions. Prior to loading the gels, 6× sample buffer was added to each of the lysates (final concentration 1×) and boiled for five minutes. Twenty to 50 μg of total protein were loaded into each lane. […] Gels were run at 60 volts (v) until the dye front passed through the stacking gel, and then the voltage was increased to 100V for the remainder of the separation. Precision Plus protein standards (Bio-Rad) were used to visualize migration. Protein was transferred to nitrocellulose membranes using a wet tank system and blocked for 1 h using 10% non-fat dried milk in tris-buffered saline with 0.01% Tween-20 (TBS-T). […] Membranes were washed 3 times in TBS-T for five minutes. Blots were then incubated with HRP conjugated secondary antibodies (1:15000) in 1% non-fat milk in TBS-T for 1 h. Membranes were washed a second time as indicated above and exposed to chemiluminecent substrate for three minutes prior to exposure to autoradiography film in a dark room. Western blot bands were quantified using Image J software based on pixel intensity.
# [2] = test system: endothelial cells in which YAP was knocked down; test: Cell proliferation assay, endothelial cells transduced with YAP specific shRNA; type: cell-based, human; conditions: soluble peptide (FIG. 8H) or VEGF 50 ng/ml (FIG. 8I)
# Procedure: HUVECs (WT, shYAP1 or control transfected) or HRMVECs were plated at 2,000 cells per well with complete EGM-2 media containing 2.0% FBS in the absence or presence of P-1, P-2 or P-C (100 ng/ml) and allowed to grow for 24 hours. Cell growth was monitored using a BrdU or MMT assay kits according to manufacturer's instructions. All assays were completed at least three times in triplicate wells.
# Raw cells were transfected with 1 μg of HuSH shRNA plasmids for collagen type I, alpha 2 using Amaxa cell line nucleofector kit V (program #T024). Constructs expressing 21-nucleotide short hairpin RNAs (shRNA) targeting human YAP (shYAP) or non-targeting control (shNT, Sigma-Aldrich, SHC002) were used. Humantargeting shYAP1 lentiviral shRNA was obtained from the Thermo Scientific RNAi consortium (TRCN0000107625). Constructs were packaged into lentivirus, pseudotyped with the vesicular stomatitis virus glycoprotein. Transduction was performed by incubating cells with lentivirus, and stably transduced cells were subsequently used for studies. All cell lines were verified by morphology and mouse and human YAP-specific PCR. […] Endothelial cells were certified mycoplasma-negative by PCR (Lonza), and primary cell cultures were used within the indicated passage numbers. Cells were transduced and selected using puromycin.
# Endothelial cells with YAP specific or non-specific shRNAs were transduced.
# YAP = test: Nuclear YAP in HUVECs attached to collagen peptides; type: cell-based, human
# Procedure: as §1
sequence,measurement,setting,value
QGPRGDKGE [Mab P-2],CAM inflammation following stimulation with peptide,[1],significantly (P<0.05) induced inflammation to nearly that of FGF-2 stimulation
same,"enhancement of Src phosphorylation, P-2 as compared to P-1",Src,~2 fold
same,endothelial cell growth in YAP knock down cells,[2],failed to induce growth
same,"nuclear localized YAP (immunofluorescence), P-2 as compared to P-1","YAP; 15 minutes after binding, no growth factor, FIG. 8A",enhanced level of nuclear localized YAP
same,"increase of nuclear YAP levels (Western blot), P-2 as compared to P-1","YAP; nuclear fractions of HUVEC lysates, FIG. 8B",approximately 2 fold
